# Experimental data from ChEMBL document CHEMBL4422669, “Bisorbicillinol inhibits Lyn tyrosine kinase for allergic response on RBL-2H3 cells” (Bioorg Med Chem Lett, 2019).
# The source made the active and inactive calls. The rule behind the calls is not given here.
# Columns and labels:
# [1] = biological target: Tyrosine-protein kinase Lyn (Homo sapiens) (UniProt P07948); settings: Sf9, 10 uM
# Description: Inhibition of human LYN expressed in baculovirus infected Sf9 insect cells using p-nitrophenol at 10 uM after 10 mins by Lineweaver-Burk plot analysis
# [2] = biological target: Tyrosine-protein kinase Lyn (Homo sapiens) (UniProt P07948); experiment: Competitive inhibition of human LYN expressed in baculovirus infected Sf9 insect cells using […] at 10 uM after 10 mins by Lineweaver-Burk plot analysis
# [3] = tested on: RBL-2H3; experiment: Cytotoxicity in rat RBL2H3 cells assessed as LDH release; type: cell-based; design: concentration or dose not given beside the values
# [4] = tested on: RBL-2H3; experiment: Anti-allergic activity in rat RBL2H3 cells assessed as reduction in calcium ionophore-induced IL-4 level preincubated for 15 mins followed by calcium ionophore stimulation and measured after 3 hrs by ELISA; type: functional, cell-based
# [5] = tested on: RBL-2H3; experiment: (§1) Anti-allergic activity in rat RBL2H3 cells assessed as reduction in mouse anti-DNP IgE-induced beta-hexosaminidase release preincubated for 15 mins followed by mouse anti-DNP IgE-stimulation and measured after 3 hrs by p-nitrophenyl-2-acetamide-2-deoxy-beta-glucopyranoside dye-based colorimetric analysis; type: functional, cell-based
# [6] = tested on: RBL-2H3; experiment: Anti-allergic activity in rat RBL2H3 cells assessed as reduction in mouse anti-DNP IgE-induced TNF-alpha level preincubated for 15 mins followed by mouse anti-DNP IgE-stimulation and measured after 3 hrs by ELISA; type: functional, cell-based
# [7] = tested on: RBL-2H3; experiment: as §1, with “calcium ionophore-induced” for “mouse anti-DNP IgE-induced”, “calcium ionophore-stimulation” for “mouse anti-DNP IgE-stimulation”; type: functional, cell-based
# [8] = tested on: RBL-2H3; experiment: Anti-allergic activity in rat RBL2H3 cells assessed as reduction in calcium ionophore-induced TNF-alpha level preincubated for 15 mins followed by calcium ionophore stimulation and measured after 3 hrs by ELISA; type: functional, cell-based
# [9] = tested on: RBL-2H3; experiment: Anti-allergic activity in rat RBL2H3 cells assessed as reduction in mouse anti-DNP IgE-induced IL-4 level preincubated for 15 mins followed by mouse anti-DNP IgE-stimulation and measured after 3 hrs by ELISA; type: functional, cell-based
# [10] = biological target: Tyrosine-protein kinase Lyn (Rattus norvegicus) (UniProt Q07014); experiment: Inhibition of mouse anti-DNP IgE-induced Lyn phosphorylation in rat RBL2H3 cells at 10 uM preincubated for 15 mins followed by mouse anti-DNP IgE stimulation and measured after 3 hrs by Western blot analysis; type: cell-based
# Tyrosine-protein kinase Lyn (Rattus norvegicus), sequence (Q07014 whole entry): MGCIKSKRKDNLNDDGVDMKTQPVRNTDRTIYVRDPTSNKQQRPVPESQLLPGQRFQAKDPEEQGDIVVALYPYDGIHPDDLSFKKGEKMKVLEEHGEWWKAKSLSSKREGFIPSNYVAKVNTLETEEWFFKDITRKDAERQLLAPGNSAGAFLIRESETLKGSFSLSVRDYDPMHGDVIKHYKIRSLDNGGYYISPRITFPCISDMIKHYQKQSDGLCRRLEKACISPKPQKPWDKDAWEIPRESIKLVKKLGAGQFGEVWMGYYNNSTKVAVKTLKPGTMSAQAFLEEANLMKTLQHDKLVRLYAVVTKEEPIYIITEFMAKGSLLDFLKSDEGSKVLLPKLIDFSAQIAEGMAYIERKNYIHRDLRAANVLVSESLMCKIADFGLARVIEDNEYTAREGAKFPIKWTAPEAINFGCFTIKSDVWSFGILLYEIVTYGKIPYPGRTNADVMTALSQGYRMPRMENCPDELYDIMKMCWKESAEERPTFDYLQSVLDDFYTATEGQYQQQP
# [11] = tested on: RBL-2H3; experiment: Effect on mouse anti-DNP IgE-induced Lyn protein expression in rat RBL2H3 cells at 10 uM preincubated for 15 mins followed by mouse anti-DNP IgE stimulation and measured after 3 hrs by Western blot analysis; type: functional, cell-based
# [12] = biological target: Tyrosine-protein kinase Lyn (Rattus norvegicus) (UniProt Q07014); experiment: Inhibition of Lyn in rat RBL2H3 cells assessed as reduction in mouse anti-DNP IgE-induced Syk phosphorylation level at 10 uM preincubated for 15 mins followed by mouse anti-DNP IgE stimulation and measured after 3 hrs by Western blot analysis; type: cell-based
# [13] = tested on: RBL-2H3; experiment: Effect on mouse anti-DNP IgE-induced Syk protein expression in rat RBL2H3 cells at 10 uM preincubated for 15 mins followed by mouse anti-DNP IgE stimulation and measured after 3 hrs by Western blot analysis; type: functional, cell-based
# [14] = biological target: Tyrosine-protein kinase Lyn (Rattus norvegicus) (UniProt Q07014); experiment: Inhibition of Lyn in rat RBL2H3 cells assessed as reduction in mouse anti-DNP IgE-induced PLCgamma1-phosphorylation level at 10 uM preincubated for 15 mins followed by mouse anti-DNP IgE stimulation and measured after 3 hrs by Western blot analysis; type: cell-based
# Tyrosine-protein kinase Lyn (Homo sapiens), sequence (P07948 2-512 limits assumed): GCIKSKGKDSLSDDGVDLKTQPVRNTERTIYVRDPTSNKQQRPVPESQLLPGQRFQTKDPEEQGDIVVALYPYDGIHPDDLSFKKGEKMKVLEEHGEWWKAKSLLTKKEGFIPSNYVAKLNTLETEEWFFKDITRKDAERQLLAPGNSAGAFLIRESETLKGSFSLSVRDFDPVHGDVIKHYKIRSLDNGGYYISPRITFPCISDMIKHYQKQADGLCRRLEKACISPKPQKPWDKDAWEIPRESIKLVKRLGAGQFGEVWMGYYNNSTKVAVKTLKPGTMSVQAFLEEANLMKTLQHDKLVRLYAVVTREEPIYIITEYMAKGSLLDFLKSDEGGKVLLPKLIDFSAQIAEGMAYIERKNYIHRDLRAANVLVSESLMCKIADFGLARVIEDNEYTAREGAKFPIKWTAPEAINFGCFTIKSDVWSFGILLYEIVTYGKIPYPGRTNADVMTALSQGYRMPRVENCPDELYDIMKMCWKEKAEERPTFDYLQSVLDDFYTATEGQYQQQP
Structure (SMILES),inhibition [1],inhibition [2],Activity [3] [%],IC50 [4] [µM],IC50 [5] [µM],IC50 [6] [µM],IC50 [7] [µM],IC50 [8] [µM],IC50 [9] [µM],inhibition [10],Activity [11],inhibition [12],Activity [13],inhibition [14]
CN[C@@H]1C[C@H]2O[C@@](C)([C@@H]1OC)n1c3ccccc3c3c4c(c5c6ccccc6n2c5c31)C(=O)NC4,Active,inactive,–,–,–,–,–,–,–,–,–,–,–,–
C/C=C/C=C/C(O)=C1/C(=O)[C@@]2(C)[C@H]3\C(=C(O)/C=C/C=C/C)C(=O)[C@H]4[C@@H]1[C@]1(C)O[C@@]4(O)[C@@]3(C)O[C@@]12O,–,–,< 5,17.9,4.5,17.3,< 100,< 100,59.4,–,–,–,–,–
C/C=C/C=C/C(=O)[C@]12C(=O)C(C)=C(O)[C@@](C)(O)[C@H]1[C@H]1\C(=C(O)/C=C/C=C/C)C(=O)[C@]2(C)C(=O)[C@@]1(C)O [BISORBICILLINOL],–,Active,< 5,4.9,2.8,2.9,53.6,63.8,2.8,inactive,inactive,Active,inactive,Active
C/C=C/C=C/C(=O)C1=C[C@](C)(OC(C)=O)C(=O)C(C)=C1O,–,–,< 5,27.1,4.8,35.6,< 100,< 100,8.5,–,–,–,–,–
C/C=C/C=C/C(=O)c1cc(C)c(O)c(C)c1O,–,–,< 5,–,26.5,–,< 100,< 100,–,–,–,–,–,–
C/C=C/C=C/C(O)=C1/C(=O)[C@@]2(C)[C@H]3\C(=C(O)/C=C/C=C/C)C(=O)[C@@]4(C)[C@@H]1[C@]1(C)O[C@@]4(O)[C@@]3(C)O[C@@]12O,–,–,< 5,9.1,18.3,29.6,< 100,23.2,6.9,–,–,–,–,–
C/C=C/C=C/C(=O)C1=C[C@@]2(C)[C@H]3C(C(=O)/C=C/C=C/C)=C(O)C(C)=C(O)[C@@]3(C)O[C@@]2(O)[C@@](C)(O)C1=O [BISVERTINOLONE],–,–,< 5,7.3,9.1,40.8,< 100,< 100,7.7,–,–,–,–,–
